From PMC12301304 (Frontiers in Pharmacology, 2025)
Read-outs that look alike come from different tables or passages of the source.

What was measured:
CYP2c11 = target: T1, CYP2c11 (Rattus norvegicus, UniProt P08683)
T1 sequence (P08683 1-500): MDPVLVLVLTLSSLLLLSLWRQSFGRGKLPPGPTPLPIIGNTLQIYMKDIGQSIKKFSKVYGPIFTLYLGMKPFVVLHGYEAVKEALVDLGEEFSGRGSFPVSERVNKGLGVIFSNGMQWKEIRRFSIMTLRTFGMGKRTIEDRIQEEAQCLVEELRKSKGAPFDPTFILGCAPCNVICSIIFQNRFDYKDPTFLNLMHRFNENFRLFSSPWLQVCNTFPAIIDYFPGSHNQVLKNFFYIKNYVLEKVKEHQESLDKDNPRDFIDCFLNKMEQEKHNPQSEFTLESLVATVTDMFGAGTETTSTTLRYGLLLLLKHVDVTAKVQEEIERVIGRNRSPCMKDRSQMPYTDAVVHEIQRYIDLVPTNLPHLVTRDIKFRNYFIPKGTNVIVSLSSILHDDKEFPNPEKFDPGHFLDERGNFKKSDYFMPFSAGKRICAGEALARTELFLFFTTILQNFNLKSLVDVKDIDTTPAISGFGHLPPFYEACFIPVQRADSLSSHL
Experimental: (§1) The effect of the Zhicaowu–Hezi combination on CYP450 enzymes in RLM was evaluated by assessing the metabolic clearance rates of theophylline, metoprolol, bupropion, mephenytoin (CYP2c13), chlorzoxazone, testosterone, and diclofenac.
(§2) On day 15, the rats were humanely euthanized, and liver tissues were excised for microsomal preparation. […] Livers from each group were repeatedly washed with ice-cold phosphate buffered saline (PBS). […] Subsequently, they were blotted dry with filter paper, weighed, and homogenized by adding 4 mL of ice-cold PBS per gram of liver tissue. The mixture was homogenized in an ice bath. The liver homogenate was subjected to centrifugation at 10,000 RPM for 20 min at 4°C. The resulting supernatant was then combined with an ice-cold 88-mmol/L CaCl2 solution at a 1:1 ratio, and the mixture was homogenized in an ice bath for 5 min. The resulting solution was then centrifuged at 25,000 × g for 30 min at 4°C. The supernatant was discarded and the precipitate was repeatedly resuspended in PBS–20% glycerol buffer. The precipitate was then stored in a separate bottle at −80°C for backup. The protein concentration of the prepared RLM was determined using a bicinchoninic acid protein assay kit.
(§3) Preincubation was conducted for 5 min in a water bath at 37°C, after which NADPH (1 mmol/L) was added, and incubation continued for 30 min at 37°C. Once the incubation period elapsed, the reaction was terminated by the addition of an ice-cold IS-containing acetonitrile solution. The samples were vortexed for 2 min and centrifuged at 15,000 RPM for 10 min. The resulting supernatant was filtered through a 0.22-μm organic microporous membrane, and 20 μL of the filtered solution was injected into the HPLC assay. To prevent the organic solvents from inducing or inhibiting the enzyme, the volume fraction of organic solvents in the entire incubation system was maintained at 1%. […] The inhibitor group was added with corresponding inhibitor, while all other procedures remained identical.

CYP2d2 = target: T2, CYP2d2 (Rattus norvegicus, UniProt P10634)
T2 sequence (P10634 1-500): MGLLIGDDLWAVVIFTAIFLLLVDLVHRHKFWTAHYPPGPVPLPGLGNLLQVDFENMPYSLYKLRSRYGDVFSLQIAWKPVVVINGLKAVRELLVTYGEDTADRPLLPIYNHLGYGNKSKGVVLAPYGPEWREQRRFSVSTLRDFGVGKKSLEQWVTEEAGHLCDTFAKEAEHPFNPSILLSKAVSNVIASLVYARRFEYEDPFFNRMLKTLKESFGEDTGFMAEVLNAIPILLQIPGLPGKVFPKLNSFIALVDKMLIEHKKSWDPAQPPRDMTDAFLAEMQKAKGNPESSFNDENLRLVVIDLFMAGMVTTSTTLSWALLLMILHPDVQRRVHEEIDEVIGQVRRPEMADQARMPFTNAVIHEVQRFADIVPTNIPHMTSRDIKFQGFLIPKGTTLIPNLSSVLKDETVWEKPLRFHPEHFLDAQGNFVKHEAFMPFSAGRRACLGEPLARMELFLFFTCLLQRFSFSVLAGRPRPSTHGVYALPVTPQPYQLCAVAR
Experimental: as §1, §2, §3

CYP3a1 = target: T3, CYP3a1 (Rattus norvegicus, UniProt P04800)
T3 sequence (P04800 1-504): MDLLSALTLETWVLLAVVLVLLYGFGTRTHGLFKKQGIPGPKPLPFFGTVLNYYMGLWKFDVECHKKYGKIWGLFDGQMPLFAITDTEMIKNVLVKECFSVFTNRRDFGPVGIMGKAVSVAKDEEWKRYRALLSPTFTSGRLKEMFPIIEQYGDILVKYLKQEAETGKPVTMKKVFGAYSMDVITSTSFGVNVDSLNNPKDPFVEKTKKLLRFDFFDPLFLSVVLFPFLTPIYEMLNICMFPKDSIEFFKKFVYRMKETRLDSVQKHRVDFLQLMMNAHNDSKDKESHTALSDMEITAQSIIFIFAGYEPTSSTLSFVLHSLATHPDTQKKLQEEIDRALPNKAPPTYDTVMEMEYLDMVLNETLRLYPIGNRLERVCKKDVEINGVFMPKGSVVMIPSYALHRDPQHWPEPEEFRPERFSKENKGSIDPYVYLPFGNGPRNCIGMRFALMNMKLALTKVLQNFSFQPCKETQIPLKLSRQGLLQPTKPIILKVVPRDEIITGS
Experimental: as §1, §2, §3

CYP2c13 = target: T4, CYP2c13 (Rattus norvegicus, UniProt P20814); assay: RLM incubation: metabolic clearance rate of mephenytoin (CYP2c13); settings: RLM 0.5 mg/mL, 30 min 37°C, inhibitor added, blank control 15.97 ± 0.68, n = 3
T4 sequence (P20814 1-490): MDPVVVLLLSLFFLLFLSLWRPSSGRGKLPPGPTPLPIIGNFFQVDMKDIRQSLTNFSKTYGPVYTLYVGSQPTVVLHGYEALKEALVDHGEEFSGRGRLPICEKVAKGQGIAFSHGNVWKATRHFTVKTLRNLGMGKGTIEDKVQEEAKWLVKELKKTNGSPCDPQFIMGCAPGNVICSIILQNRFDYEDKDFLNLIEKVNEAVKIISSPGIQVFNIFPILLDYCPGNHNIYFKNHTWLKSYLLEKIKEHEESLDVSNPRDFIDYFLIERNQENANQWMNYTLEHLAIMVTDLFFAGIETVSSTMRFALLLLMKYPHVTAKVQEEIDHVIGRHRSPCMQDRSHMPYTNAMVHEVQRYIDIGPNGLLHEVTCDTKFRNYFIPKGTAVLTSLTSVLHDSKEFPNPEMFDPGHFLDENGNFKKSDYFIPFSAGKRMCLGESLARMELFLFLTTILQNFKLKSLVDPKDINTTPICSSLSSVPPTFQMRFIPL
Experimental: as §1, §2, §3

SMILES	CYP2c11(%) metabolic clearance rate of probe drug (CYP2c11)	CYP2d2 (%) metabolic clearance rate of probe drug (CYP2d2)	CYP3a1 (%) metabolic clearance rate of probe drug (CYP3a1)	CYP2c13(%) metabolic clearance rate of probe drug (CYP2c13)	CYP2c11(%) metabolic clearance rate of probe drug (CYP2c11; RLM 0.5 mg/mL, 30 min 37°C, inhibitor added, probe diclofenac, blank control 21.12 ± 3.80, n = 3)	CYP2d2 (%) metabolic clearance rate of probe drug (CYP2d2; RLM 0.5 mg/mL, 30 min 37°C, inhibitor added, probe metoprolol, blank control […] ± 2.12, n = 3)	CYP3a1 (%) metabolic clearance rate of probe drug (CYP3a1; RLM 0.5 mg/mL, 30 min 37°C, inhibitor added, probe testosterone, blank control 25.04 ± 1.93, n = 3)
S=P(N1CC1)(N1CC1)N1CC1 [Thiotepa]	21.84 ± 2.64%	12.67 ± 0.65%	25.72 ± 2.36%	14.43 ± 0.36%	–	–	–
O=c1cc(-c2ccccc2)oc2c1ccc1ccccc12 [α-naphthoflavone]	–	–	–	16.65 ± 3.04%	23.02 ± 0.55%	13.12 ± 0.82%	25.69 ± 2.09%
